{"source": "patent US20220081435A1", "about": "“ANDROGEN RECEPTOR PROTEIN DEGRADERS” (THE REGENTS OF THE UNIVERSITY OF MICHIGAN, priority 2019, published 2022)", "format_in_all_cases": "cell-based", "key": {"AR protein [1]": {"target": "T1, AR protein (Homo sapiens, UniProt P10275, T878A)", "T1 construct": "The percent AR protein degradation induced by these compounds at various concentrations in LNCaP cells; host or cells: LNCaP", "T1 sequence (P10275 1-920 T878A)": "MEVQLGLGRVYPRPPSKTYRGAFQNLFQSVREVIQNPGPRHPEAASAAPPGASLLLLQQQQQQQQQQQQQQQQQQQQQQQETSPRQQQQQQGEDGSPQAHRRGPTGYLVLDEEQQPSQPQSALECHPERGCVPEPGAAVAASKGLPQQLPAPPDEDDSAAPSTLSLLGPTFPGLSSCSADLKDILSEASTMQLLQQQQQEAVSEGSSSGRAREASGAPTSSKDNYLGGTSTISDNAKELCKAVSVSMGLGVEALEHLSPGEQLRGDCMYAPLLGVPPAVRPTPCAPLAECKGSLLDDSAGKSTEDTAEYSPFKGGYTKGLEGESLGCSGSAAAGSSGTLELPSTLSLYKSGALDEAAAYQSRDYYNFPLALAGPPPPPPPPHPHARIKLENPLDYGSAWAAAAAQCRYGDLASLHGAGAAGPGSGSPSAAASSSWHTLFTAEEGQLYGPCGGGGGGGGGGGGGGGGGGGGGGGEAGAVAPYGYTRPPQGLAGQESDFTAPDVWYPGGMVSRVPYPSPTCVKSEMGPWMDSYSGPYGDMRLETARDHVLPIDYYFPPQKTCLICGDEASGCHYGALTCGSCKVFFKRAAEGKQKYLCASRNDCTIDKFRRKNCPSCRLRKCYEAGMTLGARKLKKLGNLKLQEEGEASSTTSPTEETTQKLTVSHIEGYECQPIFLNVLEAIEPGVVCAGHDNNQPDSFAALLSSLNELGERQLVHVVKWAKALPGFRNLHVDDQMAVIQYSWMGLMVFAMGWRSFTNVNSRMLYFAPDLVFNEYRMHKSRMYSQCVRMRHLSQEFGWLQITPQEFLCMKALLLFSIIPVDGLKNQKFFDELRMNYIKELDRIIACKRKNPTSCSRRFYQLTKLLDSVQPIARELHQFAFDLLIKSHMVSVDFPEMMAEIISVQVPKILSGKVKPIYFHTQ", "assay": "AR protein degradation in LNCaP cells (Western blotting)", "conditions": "for % AR protein degradation in LNCaP Cells: treatment time 6 h, average of three independent experiments", "procedure,_shortened": "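LNCaP cells were cultured with 10% FBS at 37° C and lysed in RIPA buffer after treatment. AR levels were measured by Western blot. Degradation percentage was quantified by densitometry as the background-corrected AR band relative to the loading control.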"}, "AR protein [2]": {"target": "T2, AR protein (Homo sapiens, UniProt P10275)", "T2 construct": "host or cells: VCaP", "T2 sequence (P10275 1-920)": "T1 sequence (P10275 1-920 T878A) with A878T", "assay": "AR protein degradation in VCaP cells (Western blotting)", "procedure": "(§1) Cell lines and Cell Culture: All the LNCaP, VCaP and 22RV1 cells used were purchased from American Type Culture Collection (ATCC). LNCaP and 22RV1 cells were grown in RPMI 1640 (Invitrogen), VCaP cells were grown in DMEM with Glutamax (Invitrogen). All of the cells were supplemented with 10% fetal bovine serum (Invitrogen) at 37° C. in a humidified 5% CO2 incubator.\n(§2) Western Blotting. Treated cells were lysed by RIPA buffer supplemented with protease and phosphatase inhibitors. The cell lysates were separated by 4-12% SDS-PAGE gels and blotted into PVDF membranes. Software ImageJ was used to quantify the percentage of AR degradation. The net protein bands and loading controls are calculated by deducting the background from the inverted band value. The final relative quantification values are the ratio of net band to net loading control."}, "AR protein [3]": {"test_system": "AR protein", "assay": "AR protein degradation in 22RV1 cells (Western blotting)", "procedure": "as §1, §2"}, "LNCaP cells": {"test_system": "LNCaP cells", "assay": "Cell growth inhibition in LNCaP cells (WST-8 assay)", "procedure": "LNCaP were treated with different compounds in charcoal stripped medium in the presence of 0.1 nM of AR agonist R1881 for 7 days. Cell viability was determined by a WST-8 assay.\nas §1"}}, "note": "Changes are numbered by the printed parent chain."}
{"smiles": "Cc1ncsc1-c1ccc([C@H](CC(=O)N2CCC(N3CCC(C#Cc4ccc(C(=O)NC5C(C)(C)C(Oc6ccc(C#N)c(Cl)c6)C5(C)C)cc4)CC3)CC2)NC(=O)[C@@H]2C[C@@H](O)CN2C(=O)[C@@H](NC(=O)C2(F)CC2)C(C)(C)C)cc1", "note": "(stereo partly drawn) [Compound 34, (2S,4R)—N—((S)-3-(4-((4-(((1r,3r)-3-(3-Chloro-4-cyanophenoxy)-2,2,4,4-tetramethyl-cyclobutyl)carbamoyl)phenyl)ethynyl)-[1,4′-bipiperidin]-1′-yl)-1-(4-(4-methylthiazol-5-yl)phenyl)-3-oxopropyl)-1-((S)-2-(1-fluorocyclopropane-1-carboxamido)-3,3-dimethylbutanoyl)-4-hydroxypyrrolidine-2-carboxamide]", "values": [{"measurement": "% AR protein degradation in LNCaP Cells", "setting": "AR protein [1]; 0.01 μM", "result": 89, "unit": "%"}, {"measurement": "% AR protein degradation in LNCaP Cells", "setting": "AR protein [1]; 0.1 μM", "result": 99, "unit": "%"}, {"measurement": "% AR protein degradation in LNCaP Cells", "setting": "AR protein [1]; 1 μM", "result": 100, "unit": "%"}, {"measurement": "AR degradation", "setting": "AR protein [1]; LNCaP, 10 nM, 24 h treatment", "result": "> 95", "unit": "%"}, {"measurement": "Time to effective reduction of AR protein level", "setting": "AR protein [1]; LNCaP, 100 nM", "result": "≤ 2", "unit": "h"}, {"measurement": "AR depletion with a 4 h treatment", "setting": "AR protein [1]; LNCaP, 100 nM, 4 h", "result": "near-complete AR depletion"}, {"measurement": "DC50", "setting": "AR protein [1]; LNCaP, 24 h treatment, read-out: DC50 (drug concentration that results in 50% protein degradation)", "result": 0.86, "unit": "nM"}, {"measurement": "AR degradation (Western blotting, dose-dependent)", "setting": "AR protein [1]; LNCaP, at 10 nM", "result": "partial AR degradation"}, {"measurement": "AR degradation (Western blotting, dose-dependent)", "setting": "AR protein [1]; LNCaP, at both 100 nM and 1 μM", "result": "essentially complete AR degradation"}, {"measurement": "Rank as AR degrader among 32, 34 and 35", "setting": "AR protein [1]; LNCaP, based upon the data obtained at 10 nM", "result": "most potent"}, {"measurement": "AR degradation after pretreatment with AR antagonist (6), VHL-d, MLN4924 or MG132", "setting": "AR protein [1]; LNCaP, data not shown", "result": "effectively blocked"}, {"measurement": "AR degradation", "setting": "AR protein [2]; 10 nM, 24 h treatment", "result": "> 95", "unit": "%"}, {"measurement": "Time to effective reduction of AR protein level", "setting": "AR protein [2]; 100 nM", "result": "≤ 2", "unit": "h"}, {"measurement": "AR depletion with a 4 h treatment", "setting": "AR protein [2]; 100 nM, 4 h", "result": "near-complete AR depletion"}, {"measurement": "DC50", "setting": "AR protein [2]; 24 h treatment, read-out: DC50 (drug concentration that results in 50% protein degradation)", "result": 0.76, "unit": "nM"}, {"measurement": "AR degradation after pretreatment with AR antagonist (6), VHL-d, MLN4924 or MG132", "setting": "AR protein [2]; data not shown", "result": "effectively blocked"}, {"measurement": "AR degradation", "setting": "AR protein [3]; 22RV1, 1 μM, 24 h treatment", "result": "near complete degradation"}, {"measurement": "DC50", "setting": "AR protein [3]; 22RV1, 24 h treatment, read-out: DC50 (drug concentration that results in 50% protein degradation)", "result": 10.4, "unit": "nM"}, {"measurement": "Potency relative to enzalutamide (4) and compound 6 in cell growth inhibition", "setting": "LNCaP cells", "result": "> 100", "unit": "times"}, {"measurement": "IC50", "setting": "LNCaP cells; charcoal stripped medium, 0.1 nM R1881, 7 days", "result": 0.25, "unit": "nM"}]}
